Source: the NIST ThermoML archive (doi:10.1016/j.jct.2005.06.011)
Numbers after ± are expanded uncertainties.

Columns and labels:
[1] = xn = mol fraction of the nth substance listed; conditions: 101 kPa, Liquid; for speed of sound: Linear variable-path acoustic interferometer
[2] = refractive index (Na D-line) (dimensionless); xn = mol fraction of the nth substance listed; conditions: 101 kPa, Liquid

**Q.** Which results are given for `CC1CCCCC1` [methylcyclohexane] + CCCO?
**A.** speed of sound ([1]; 298.15 K, x1 = 0.1008): 1207 ± 4 m/s; speed of sound ([1]; 298.15 K, x1 = 0.2027): 1208 ± 4 m/s; speed of sound ([1]; 298.15 K, x1 = 0.3047): 1209 ± 4 m/s; speed of sound ([1]; 298.15 K, x1 = 0.4039): 1210 ± 4 m/s; speed of sound ([1]; 298.15 K, x1 = 0.5031): 1212 ± 4 m/s; speed of sound ([1]; 298.15 K, x1 = 0.6008): 1213 ± 4 m/s; speed of sound ([1]; 298.15 K, x1 = 0.6985): 1214 ± 4 m/s; speed of sound ([1]; 298.15 K, x1 = 0.799): 1215 ± 4 m/s; speed of sound ([1]; 298.15 K, x1 = 0.8995): 1216 ± 4 m/s; speed of sound ([1]; 298.15 K, x1 = 1): 1217 ± 4 m/s; mass density ([1]; 298.15 K, x1 = 0.1008): 801.22 ± 8 kg/m3; viscosity ([1]; 298.15 K, x1 = 0.1008): 1.729 ± 0.021 mPa·s; mass density ([1]; 298.15 K, x1 = 0.2027): 794.2 ± 8 kg/m3; viscosity ([1]; 298.15 K, x1 = 0.2027): 1.471 ± 0.018 mPa·s; mass density ([1]; 298.15 K, x1 = 0.3047): 788.08 ± 7.9 kg/m3; viscosity ([1]; 298.15 K, x1 = 0.3047): 1.26 ± 0.016 mPa·s; mass density ([1]; 298.15 K, x1 = 0.4039): 782.97 ± 7.8 kg/m3; viscosity ([1]; 298.15 K, x1 = 0.4039): 1.102 ± 0.014 mPa·s; mass density ([1]; 298.15 K, x1 = 0.5031): 778.56 ± 7.8 kg/m3; viscosity ([1]; 298.15 K, x1 = 0.5031): 0.9688 ± 0.013 mPa·s; mass density ([1]; 298.15 K, x1 = 0.6008): 774.91 ± 7.8 kg/m3; viscosity ([1]; 298.15 K, x1 = 0.6008): 0.8839 ± 0.012 mPa·s; mass density ([1]; 298.15 K, x1 = 0.6985): 771.66 ± 7.7 kg/m3; viscosity ([1]; 298.15 K, x1 = 0.6985): 0.7998 ± 0.011 mPa·s; mass density ([1]; 298.15 K, x1 = 0.799): 768.83 ± 7.7 kg/m3; viscosity ([1]; 298.15 K, x1 = 0.799): 0.7511 ± 0.01 mPa·s; mass density ([1]; 298.15 K, x1 = 0.8995): 766.39 ± 7.7 kg/m3; viscosity ([1]; 298.15 K, x1 = 0.8995): 0.7028 ± 0.0097 mPa·s; mass density ([1]; 298.15 K, x1 = 1): 764.99 ± 7.7 kg/m3; viscosity ([1]; 298.15 K, x1 = 1): 0.6757 ± 0.0095 mPa·s; mass density ([1]; 303.15 K, x1 = 0.1008): 796.96 ± 8 kg/m3; viscosity ([1]; 303.15 K, x1 = 0.1008): 1.536 ± 0.019 mPa·s; mass density ([1]; 303.15 K, x1 = 0.2027): 789.87 ± 7.9 kg/m3; viscosity ([1]; 303.15 K, x1 = 0.2027): 1.317 ± 0.016 mPa·s; mass density ([1]; 303.15 K, x1 = 0.3047): 783.7 ± 7.8 kg/m3; viscosity ([1]; 303.15 K, x1 = 0.3047): 1.136 ± 0.014 mPa·s; mass density ([1]; 303.15 K, x1 = 0.4039): 778.55 ± 7.8 kg/m3; viscosity ([1]; 303.15 K, x1 = 0.4039): 0.9975 ± 0.013 mPa·s; mass density ([1]; 303.15 K, x1 = 0.5031): 774.16 ± 7.8 kg/m3; viscosity ([1]; 303.15 K, x1 = 0.5031): 0.8863 ± 0.012 mPa·s; mass density ([1]; 303.15 K, x1 = 0.6008): 770.45 ± 7.7 kg/m3; viscosity ([1]; 303.15 K, x1 = 0.6008): 0.813 ± 0.011 mPa·s; mass density ([1]; 303.15 K, x1 = 0.6985): 767.2 ± 7.7 kg/m3; viscosity ([1]; 303.15 K, x1 = 0.6985): 0.7403 ± 0.01 mPa·s; mass density ([1]; 303.15 K, x1 = 0.799): 764.32 ± 7.7 kg/m3; viscosity ([1]; 303.15 K, x1 = 0.799): 0.6984 ± 0.0096 mPa·s; mass density ([1]; 303.15 K, x1 = 0.8995): 761.95 ± 7.6 kg/m3; viscosity ([1]; 303.15 K, x1 = 0.8995): 0.6568 ± 0.0092 mPa·s; mass density ([1]; 303.15 K, x1 = 1): 760.66 ± 7.6 kg/m3; viscosity ([1]; 303.15 K, x1 = 1): 0.631 ± 0.0089 mPa·s; mass density ([1]; 308.15 K, x1 = 0.1008): 792.71 ± 7.9 kg/m3; viscosity ([1]; 308.15 K, x1 = 0.1008): 1.343 ± 0.016 mPa·s; mass density ([1]; 308.15 K, x1 = 0.2027): 785.57 ± 7.9 kg/m3; viscosity ([1]; 308.15 K, x1 = 0.2027): 1.162 ± 0.015 mPa·s; mass density ([1]; 308.15 K, x1 = 0.3047): 779.32 ± 7.8 kg/m3; viscosity ([1]; 308.15 K, x1 = 0.3047): 1.013 ± 0.013 mPa·s; mass density ([1]; 308.15 K, x1 = 0.4039): 774.13 ± 7.8 kg/m3; viscosity ([1]; 308.15 K, x1 = 0.4039): 0.8926 ± 0.012 mPa·s; mass density ([1]; 308.15 K, x1 = 0.5031): 769.74 ± 7.7 kg/m3; viscosity ([1]; 308.15 K, x1 = 0.5031): 0.8037 ± 0.011 mPa·s; mass density ([1]; 308.15 K, x1 = 0.6008): 765.97 ± 7.7 kg/m3; viscosity ([1]; 308.15 K, x1 = 0.6008): 0.742 ± 0.01 mPa·s; mass density ([1]; 308.15 K, x1 = 0.6985): 762.69 ± 7.7 kg/m3; viscosity ([1]; 308.15 K, x1 = 0.6985): 0.6808 ± 0.0094 mPa·s; mass density ([1]; 308.15 K, x1 = 0.799): 759.8 ± 7.6 kg/m3; viscosity ([1]; 308.15 K, x1 = 0.799): 0.6457 ± 0.009 mPa·s; mass density ([1]; 308.15 K, x1 = 0.8995): 757.5 ± 7.6 kg/m3; viscosity ([1]; 308.15 K, x1 = 0.8995): 0.6107 ± 0.0087 mPa·s; mass density ([1]; 308.15 K, x1 = 1): 756.3 ± 7.6 kg/m3; viscosity ([1]; 308.15 K, x1 = 1): 0.5902 ± 0.0085 mPa·s; refractive index ([2]; 298.15 K, x1 = 0.1008): 1.3888 ± 0.0012; refractive index ([2]; 298.15 K, x1 = 0.2027): 1.3934 ± 0.0012; refractive index ([2]; 298.15 K, x1 = 0.3047): 1.3979 ± 0.0012; refractive index ([2]; 298.15 K, x1 = 0.4039): 1.4016 ± 0.0012; refractive index ([2]; 298.15 K, x1 = 0.5031): 1.4053 ± 0.0012; refractive index ([2]; 298.15 K, x1 = 0.6008): 1.409 ± 0.0013; refractive index ([2]; 298.15 K, x1 = 0.6985): 1.4127 ± 0.0013; refractive index ([2]; 298.15 K, x1 = 0.799): 1.4159 ± 0.0013; refractive index ([2]; 298.15 K, x1 = 0.8995): 1.4191 ± 0.0013; refractive index ([2]; 298.15 K, x1 = 1): 1.4217 ± 0.0013; refractive index ([2]; 303.15 K, x1 = 0.1008): 1.3865 ± 0.0012; refractive index ([2]; 303.15 K, x1 = 0.2027): 1.391 ± 0.0012; refractive index ([2]; 303.15 K, x1 = 0.3047): 1.3955 ± 0.0012; refractive index ([2]; 303.15 K, x1 = 0.4039): 1.3994 ± 0.0012; refractive index ([2]; 303.15 K, x1 = 0.5031): 1.4032 ± 0.0012; refractive index ([2]; 303.15 K, x1 = 0.6008): 1.4066 ± 0.0013; refractive index ([2]; 303.15 K, x1 = 0.6985): 1.4101 ± 0.0013; refractive index ([2]; 303.15 K, x1 = 0.799): 1.4133 ± 0.0013; refractive index ([2]; 303.15 K, x1 = 0.8995): 1.4164 ± 0.0013; refractive index ([2]; 303.15 K, x1 = 1): 1.4192 ± 0.0013; refractive index ([2]; 308.15 K, x1 = 0.1008): 1.3841 ± 0.0012; refractive index ([2]; 308.15 K, x1 = 0.2027): 1.3886 ± 0.0012; refractive index ([2]; 308.15 K, x1 = 0.3047): 1.3932 ± 0.0012; refractive index ([2]; 308.15 K, x1 = 0.4039): 1.3971 ± 0.0012; refractive index ([2]; 308.15 K, x1 = 0.5031): 1.4011 ± 0.0012; refractive index ([2]; 308.15 K, x1 = 0.6008): 1.4043 ± 0.0013; refractive index ([2]; 308.15 K, x1 = 0.6985): 1.4075 ± 0.0013; refractive index ([2]; 308.15 K, x1 = 0.799): 1.4106 ± 0.0013; refractive index ([2]; 308.15 K, x1 = 0.8995): 1.4137 ± 0.0013; refractive index ([2]; 308.15 K, x1 = 1): 1.4163 ± 0.0013

**Q.** With `CCO` [ethanol] + CC1CCCCC1 as the compound, how does the speed of sound ([1]; 298.15 K, x2 = 0) read?
**A.** 1161 ± 4 m/s

**Q.** And the mass density ([1]; 298.15 K, x2 = 0)?
**A.** 785.66 ± 7.9 kg/m3

**Q.** What about the viscosity ([1]; 298.15 K, x2 = 0) of the same compound?
**A.** 1.083 ± 0.013 mPa·s

**Q.** And the mass density ([1]; 303.15 K, x2 = 0)?
**A.** 781.34 ± 7.8 kg/m3

**Q.** And the viscosity ([1]; 303.15 K, x2 = 0)?
**A.** 0.985 ± 0.012 mPa·s

**Q.** And the mass density ([1]; 308.15 K, x2 = 0)?
**A.** 776.99 ± 7.8 kg/m3

**Q.** What about the viscosity ([1]; 308.15 K, x2 = 0) of the same compound?
**A.** 0.8954 ± 0.011 mPa·s

**Q.** What about the refractive index ([2]; 298.15 K, x2 = 0) of the same compound?
**A.** 1.3608 ± 0.0012

**Q.** What about the refractive index ([2]; 303.15 K, x2 = 0) of the same compound?
**A.** 1.3589 ± 0.0012

**Q.** And the refractive index ([2]; 308.15 K, x2 = 0)?
**A.** 1.3563 ± 0.0012
